Measured values as given in PMC9007350, “Aurintricarboxylic acid is a canonical disruptor of the TAZ-TEAD transcriptional complex” (PLoS ONE, 2022).
Like-named read-outs stand apart in the source and are kept apart here.

Tests used:
[1] = target: T1, TAZ-TEAD complex (human TAZ (23-57) probe, human TEAD4 (217-434)) (Homo sapiens, UniProt Q15561); test: TAZ-TEAD fluorescence polarization assay; format: binding; conditions: TEAD4 350 nM, probe 25 nM
T1 construct: made in house
Experimental: Human YAP (61–100), human TAZ (23–57) and mouse Vgll1 (26–51) peptide probes were used; all the probes had carboxyfluorescein labels. Human TEAD4 (217–434) was used in the assay at a concentration of 350 nM and the peptide probe concentration was 25 nM. Disruptors were titrated at concentrations ranging from 0–150 μM to the probe-TEAD complex, and the mixtures were incubated at 25°C for 20 min. Then, polarization measurements were taken using a Victor3 (PerkinElmer) plate reader.

NIH3T3 cells = test: LDH cytotoxicity assay, NIH3T3; format: cell-based; conditions: NIH3T3, concentrations used in soft agar assay
Experimental: Soft agar colony growth assay was performed as previously described. The colonies were counted using Image-Pro Plus 7.0 software (Media Cybernetics). ATA cytotoxicity was assessed using the CyQUANT LDH Cytotoxicity Assay Kit (ThermoFisher) and was performed as per the manufacturer’s protocol.
NIH3T3 and HEK293 cells were treated with the indicated concentrations of ATA and the cytotoxicity was evaluated by calculating the amount of intracellular LDH released into the media. LDH absorbance after complete cell lysis is considered as 100% cytotoxicity and the absorbance after ATA treatment was normalized accordingly. (TIF) Click here for additional data file.

[2] = test system: TC/TEAD transcriptional profile in TC-expressing NIH3T3 cells; test: Bulk RNA-Seq, differential gene expression and GSEA (TC ATA v. TC DMSO); format: cell-based, murine
Experimental: NIH3T3 and HEK293 cells were obtained from the American Type Tissue Collection (ATCC, Manassas, VA) and cultured in DMEM containing 10% fetal bovine serum and penicillin/streptomycin. A TEAD dual luciferase reporter assay was performed as previously described. Cells were treated with vehicle control or ATA (10 μM) for 48 h before measuring the luciferase activity or processing the samples for RNA extraction. Each experiment was repeated at least 2-3 times. NIH3T3 cells were used. The extracted RNA (RNeasy Mini, Qiagen) from treated cells was either used for qPCR measurements or sent for bulk RNA-Seq. Sequencing runs were performed on an Illumina HiSeq 4000 sequencer (Genewiz). Subsequent bioinformatics analysis was performed in the Galaxy Project platform. Paired end reads were aligned to the murine genome ([…]2 [27]. Raw count files were generated with featureCounts using a corresponding GTF reference. Differential gene expression analysis was performed with DESeq2 [29]. Transcripts were considered to be differentially expressed if the false discovery rate < 0.05 and Log2FC > 2. When performing differential gene expression for GSEA analysis, the Limma package was used (<5 CPM filtering) with t-scores used for rank statistics. GSEA plots and statistics were generated with FGSEA with custom gene sets. Raw sequencing reads and processed files have been deposited in the GEO repository (data will be uploaded upon manuscript acceptance). The Universal Probe Library probes (Roche) and the associated primer sequences for the qPCR targets are listed below: […]

T1 sequence (Q15561 217-434, one chain of several): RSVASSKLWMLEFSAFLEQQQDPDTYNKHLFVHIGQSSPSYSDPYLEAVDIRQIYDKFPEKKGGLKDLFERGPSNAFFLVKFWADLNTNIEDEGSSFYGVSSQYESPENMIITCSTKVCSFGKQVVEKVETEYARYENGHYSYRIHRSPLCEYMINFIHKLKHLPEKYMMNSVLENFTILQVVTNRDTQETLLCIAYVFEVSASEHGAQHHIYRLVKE

With `O=C(O)C1=CC(=C(c2ccc(O)c(C(=O)O)c2)c2ccc(O)c(C(=O)O)c2)C=CC1=O` [ATA, aurintricarboxylic acid] the IC50 ([1]; acylated TEAD, read-out: IC50, TAZ-TEAD FP assay, acylated TEAD) was 68 µM, the IC50 ([1]; deacylated TEAD, read-out: IC50, TAZ-TEAD FP assay, deacylated TEAD) was 72 µM and the “cytotoxicity, LDH release” value (NIH3T3 cells) was “did not show cytotoxicity”. For the same compound, the “Log2 Fold Change, Pkig (ENSMUSG00000035268)” value [2] was 0.2955, the “GSEA normalized enrichment score (NES) for the 248 TC-upregulated genes” value ([2]; ATA-treated vs vehicle, TC-expressing NIH3T3, 10 μM, 48 h, P = 0.0036) was -2.027 and the “Log2 Fold Change, Cep83os (ENSMUSG00000097164)” value ([2]; TC ATA v. TC DMSO, RNA-Seq differential gene expression, gene Cep83os) was 0.5451. For the same compound, the “Log2 Fold Change, P3h1 (ENSMUSG00000028641)” value ([2]; TC ATA v. TC DMSO, RNA-Seq differential gene expression, gene P3h1) was 0.1936, the “Log2 Fold Change, Per1 (ENSMUSG00000020893)” value ([2]; TC ATA v. TC DMSO, RNA-Seq differential gene expression, gene Per1) was 0.3113 and the “Log2 Fold Change, Spn (ENSMUSG00000051457)” value ([2]; TC ATA v. TC DMSO, RNA-Seq differential gene expression, gene Spn) was 0.7001. For the same compound, the “Log2 Fold Change, Wnt9a (ENSMUSG00000000126)” value ([2]; TC ATA v. TC DMSO, RNA-Seq differential gene expression, gene Wnt9a) was -0.2847, the “Log2 Fold Change” value ([2]; gene AW551984, TC ATA v. TC DMSO) was 0.7046 and the “Log2 Fold Change” value ([2]; gene Abcd2, TC ATA v. TC DMSO) was 0.775. The “Log2 Fold Change” value ([2]; gene Adgra2, TC ATA v. TC DMSO) was -0.4459, the “Log2 Fold Change” value ([2]; gene Adgrl2, TC ATA v. TC DMSO) was 0.4171 and the “Log2 Fold Change” value ([2]; gene Angpt2, TC ATA v. TC DMSO) was 1.066. For the same compound, the “Log2 Fold Change” value ([2]; gene Angptl2, TC ATA v. TC DMSO) was -0.3301, the “Log2 Fold Change” value ([2]; gene Asb4, TC ATA v. TC DMSO) was 0.7498 and the “Log2 Fold Change” value ([2]; gene Asic1, TC ATA v. TC DMSO) was 0.4827. For the same compound, the “Log2 Fold Change” value ([2]; gene Atg9b, TC ATA v. TC DMSO) was -1.183, the “Log2 Fold Change” value ([2]; gene Atp1a2, TC ATA v. TC DMSO) was 0.776 and the “Log2 Fold Change” value ([2]; gene Atp1b1, TC ATA v. TC DMSO) was 0.4541. The “Log2 Fold Change” value ([2]; gene Cacng7, TC ATA v. TC DMSO) was 0.4229, the “Log2 Fold Change” value ([2]; gene Cbr2, TC ATA v. TC DMSO) was 1.297 and the “Log2 Fold Change” value ([2]; gene Ccdc80, TC ATA v. TC DMSO) was 0.4999. For the same compound, the “Log2 Fold Change” value ([2]; gene Cd24a, TC ATA v. TC DMSO) was 0.8435, the “Log2 Fold Change” value ([2]; gene Cd81, TC ATA v. TC DMSO) was 0.3883 and the “Log2 Fold Change” value ([2]; gene Chrnb1, TC ATA v. TC DMSO) was -0.628. The “Log2 Fold Change” value ([2]; gene Ckmt2, TC ATA v. TC DMSO) was 0.9415, the “Log2 Fold Change” value ([2]; gene Clu, TC ATA v. TC DMSO) was 0.6162 and the “Log2 Fold Change” value ([2]; gene Col4a6, TC ATA v. TC DMSO) was 0.4089. The “Log2 Fold Change” value ([2]; gene Coq8a, TC ATA v. TC DMSO) was 0.862, the “Log2 Fold Change” value ([2]; gene Creg1, TC ATA v. TC DMSO) was 0.425 and the “Log2 Fold Change” value ([2]; gene Csrp2, TC ATA v. TC DMSO) was -0.43. For the same compound, the “Log2 Fold Change” value ([2]; gene Cth, TC ATA v. TC DMSO) was -0.3812, the “Log2 Fold Change” value ([2]; gene Dhrs3, TC ATA v. TC DMSO) was 0.4703 and the “Log2 Fold Change” value ([2]; gene Dlk1, TC ATA v. TC DMSO) was 0.4509. The “Log2 Fold Change” value ([2]; gene Dmpk, TC ATA v. TC DMSO) was 0.6567, the “Log2 Fold Change” value ([2]; gene Dpep1, TC ATA v. TC DMSO) was 0.7304 and the “Log2 Fold Change” value ([2]; gene Epha4, TC ATA v. TC DMSO) was 0.8248. For the same compound, the “Log2 Fold Change” value ([2]; gene Ercc1, TC ATA v. TC DMSO) was -0.7217, the “Log2 Fold Change” value ([2]; gene Errfi1, TC ATA v. TC DMSO) was -0.4719 and the “Log2 Fold Change” value ([2]; gene Fabp3, TC ATA v. TC DMSO) was 1.14. The “Log2 Fold Change” value ([2]; gene Fam13c, TC ATA v. TC DMSO) was 0.6886, the “Log2 Fold Change” value ([2]; gene Fam110c, TC ATA v. TC DMSO) was -0.7995 and the “Log2 Fold Change” value ([2]; gene Fam114a1, TC ATA v. TC DMSO) was 0.3512. The “Log2 Fold Change” value ([2]; gene Fgf7, TC ATA v. TC DMSO) was 0.4417, the “Log2 Fold Change” value ([2]; gene Fn1, TC ATA v. TC DMSO) was 0.5505 and the “Log2 Fold Change” value ([2]; gene Galnt15, TC ATA v. TC DMSO) was 1.35. For the same compound, the “Log2 Fold Change” value ([2]; gene Gas1, TC ATA v. TC DMSO) was 0.4145, the “Log2 Fold Change” value ([2]; gene Ggct, TC ATA v. TC DMSO) was -0.7955 and the “Log2 Fold Change” value ([2]; gene Gm49774, TC ATA v. TC DMSO) was -0.6084. The “Log2 Fold Change” value ([2]; gene Gse1, TC ATA v. TC DMSO) was 0.7002, the “Log2 Fold Change” value ([2]; gene Gsta3, TC ATA v. TC DMSO) was 0.7075 and the “Log2 Fold Change” value ([2]; gene Gstm1, TC ATA v. TC DMSO) was 0.6142. For the same compound, the “Log2 Fold Change” value ([2]; gene Hivep3, TC ATA v. TC DMSO) was 0.5196.
